Key:
vesamicol receptors [1] = target: T1, vesamicol receptors (Rattus norvegicus, UniProt Q62666); assay: Receptor binding test: inhibition of I-125 labeled 5-iodobenzo vesamicol binding to brain homogenate; design: from tissue; host or cells: rat brain without cerebellum, P2 fraction; species or system Male Wistar rats; conditions: Inhibitive concentration at 50% (IC50), Vesamicol receptor, Table 5; incubated three hours at 37°C; no unit printed in table (b19 gives nM for DRC140)
T1 sequence (Q62666 1-530): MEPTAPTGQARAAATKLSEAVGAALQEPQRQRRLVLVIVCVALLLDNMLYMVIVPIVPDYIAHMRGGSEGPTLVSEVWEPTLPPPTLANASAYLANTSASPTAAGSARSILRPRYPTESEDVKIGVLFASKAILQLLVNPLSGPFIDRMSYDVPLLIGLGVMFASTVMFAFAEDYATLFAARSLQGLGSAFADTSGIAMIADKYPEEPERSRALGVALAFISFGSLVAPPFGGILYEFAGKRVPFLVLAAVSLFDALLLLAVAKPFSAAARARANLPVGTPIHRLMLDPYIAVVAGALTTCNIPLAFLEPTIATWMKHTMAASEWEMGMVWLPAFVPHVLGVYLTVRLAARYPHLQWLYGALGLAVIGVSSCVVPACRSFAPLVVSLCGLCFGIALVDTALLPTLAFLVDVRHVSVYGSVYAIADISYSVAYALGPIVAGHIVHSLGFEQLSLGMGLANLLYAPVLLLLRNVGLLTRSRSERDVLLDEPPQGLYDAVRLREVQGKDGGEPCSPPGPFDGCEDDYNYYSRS
Method: (§1) Properties relating to binding of the vesamicol piperazine derivatives of the present invention to various receptors were examined as follows. Specifically, ligands which combine with each receptor were incubated together with homogenates prepared as follows.
To measure affinity of vesamicol receptors, I-125 labeled 5-iodobenzo vesamicol (synthesized and labeled according to Jung et al., J. Med. Chem. 33, 2065-2068, 1990) was added to a brain homogenate prepared as follows. The vesamicol piperazine derivatives synthesized in the Examples were added at various concentrations. The mixture was then incubated for three hours at 37°C.
(§2) B (%) =((1 0 0 × [U])^(∩))/([ I C50 (])^(∩) (+ [U])^(∩)) [formula] wherein B(%) is the proportion of specific binding in the total binding, n indicates a Hill coefficient, and U is the concentration of unbound ligand.
Male Wistar rats were anesthetized with ether and were decapitated. The brains were immediately extracted. The cerebella were removed from the brains. 0.32 M sucrose (containing 4 mM HEPES (pH 7.4)) in an amount of five times the wet amount (weight) of this sample was added. The sample was homogenized by a potter-type homogenizer for 12 strokes while cooling with ice. 0.32 M sucrose in the same amount as the homogenate (total: 10 times the wet amount of the original sample) was added. The suspension thus obtained was centrifuged for 5 minutes at 1,000 x g. The precipitate was removed. The supernatant liquid was centrifuged at 9,200 x g for 15 minutes to separate the precipitate from the supernatant liquid. P2 fractions were suspended in a Tris-HCl buffer (pH 7.4) for binding experiments and stored at -80°C until the start of the binding experiment.

sigma receptors = target: T2, sigma receptors (Cavia porcellus, UniProt Q60492); assay: Receptor binding test: inhibition of tritium-labeled (+) pentazocine binding to brain homogenate; design: species or system male guinea pig
T2 construct: The brain was immediately extracted; The cerebellum was removed from the brain; from tissue; host or cells: guinea pig brain without cerebellum, membrane pellet
T2 sequence (Q60492 whole entry): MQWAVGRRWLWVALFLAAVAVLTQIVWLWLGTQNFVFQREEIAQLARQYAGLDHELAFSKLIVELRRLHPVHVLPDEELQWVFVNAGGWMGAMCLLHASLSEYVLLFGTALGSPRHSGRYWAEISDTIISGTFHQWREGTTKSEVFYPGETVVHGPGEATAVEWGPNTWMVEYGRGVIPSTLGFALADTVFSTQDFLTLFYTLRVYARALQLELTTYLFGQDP
Method: as §1
To measure affinity to sigma receptors, tritium-labeled (+) pentazocine was added to a brain homogenate prepared as follows. The vesamicol piperazine derivatives synthesized in the Examples were added at various concentrations, and the mixture was incubated for two hours at room temperature.
as §2
A male guinea pig was anesthetized with ether and was decapitated. The brain was immediately extracted. The cerebellum was removed from the brain. 10 mM Tris-sucrose buffer solution (0.32 M sucrose + 10 mM Tris-HCl (pH 7.4)) was added in the amount of 10 ml/g of the tissue. The mixture was homogenized by a potter-type homogenizer for 6-10 strokes. The homogenate was centrifuged at 1,000 x g for 10 minutes at 4°C and the supernatant liquid was collected. The resulting pellets were suspended in the Tris-sucrose buffer solution at the concentration of 2 ml/g, followed by centrifugation at 1,000 x g for 10 minutes at 4°C. The supernatant liquids obtained by the two centrifugation at 1,000 x g were combined and centrifuged at 31,000 x g for 15 minutes at 4°C. The resulting pellets were suspended in a 10 mM Tris-HCl buffer solution (pH 7.4) at a concentration of 3 ml/g of tissue and incubated for 30 minutes at 25°C. After incubation, the suspension was centrifuged at 31,000 x g for 15 minutes at 4°C. The pellets obtained were suspended in a 10 mM Tris-HCl buffer solution (pH 7.4) to make a final concentration of 1.53 ml/g of tissue. The suspension was homogenized by a potter-type homogenizer for 5 strokes. The homogenate was stored at -80°C until the start of the experiment.

vesamicol receptors [2] = target: T1, vesamicol receptors; assay: Inhibition experiment: inhibition of binding of radioactive-iodine-labeled DRC140 to P2 fractions; design: Synaptic vesicles were extracted and separated from the brain of a rat; from tissue; host or cells: rat brain without cerebellum: P2, crude synaptic vesicles, purified synaptic vesicles; conditions: inhibitive concentration at 50% (IC50), Receptor Vesamicol
[3] = target: T3, serotonin 5-HT1A receptors (Rattus norvegicus, UniProt P19327); assay: Receptor binding test: inhibition of tritium-labeled 8-hydroxy-DPAT binding to brain (hippocampus) homogenate; design: species or system Male Wistar rats
T3 construct: The hippocampi were immediately collected from the brains; from tissue; host or cells: rat hippocampus membranes
T3 sequence (P19327 1-422): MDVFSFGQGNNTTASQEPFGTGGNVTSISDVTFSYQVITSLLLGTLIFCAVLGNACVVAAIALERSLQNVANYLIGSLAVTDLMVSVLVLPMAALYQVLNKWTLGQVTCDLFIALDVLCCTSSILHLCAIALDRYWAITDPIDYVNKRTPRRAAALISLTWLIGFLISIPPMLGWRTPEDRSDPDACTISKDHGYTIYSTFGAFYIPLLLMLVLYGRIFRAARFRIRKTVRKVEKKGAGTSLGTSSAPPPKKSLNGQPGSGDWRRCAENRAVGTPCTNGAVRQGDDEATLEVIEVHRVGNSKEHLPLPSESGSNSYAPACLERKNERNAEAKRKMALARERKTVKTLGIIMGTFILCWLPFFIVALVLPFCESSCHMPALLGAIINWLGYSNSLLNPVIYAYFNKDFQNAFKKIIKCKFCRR
Method: as §1
To measure affinity to serotonin 5-HT1A receptors, tritium-labeled 8-hydroxy-DPAT was added to a brain homogenate prepared as follows. The vesamicol piperazine derivatives synthesized in the Examples were added at various concentrations, and the mixture was incubated for 30 minutes at 37°C. To measure affinity to serotonin 5-HT2A receptors, tritium-labeled ketanserin was added to a brain homogenate prepared as follows. The vesamicol piperazine derivatives synthesized in the Examples were added at various concentrations, and the mixture was incubated for 15 minutes at 37°C.
as §2
Male Wistar rats were anesthetized with ether and were decapitated and the brains quickly extracted. The hippocampi were immediately collected from the brains. A 40-fold (vol/wt) amount of ice cooled 50 mM Tris-HCl buffer (pH 7.4) was added to the hippocampi. The mixture was homogenized using a potter-type homogenizer. The homogenate was centrifuged at 40,000 x g for 20 minutes. The supernatant liquid was removed and the resulting pellets were suspended in a 40-fold amount of Tris-HCl buffer solution. The suspension was centrifuged and the Tris buffer solution was again added to the pellets. This procedure was repeated twice. The product thus obtained was homogenized using a 40-fold amount of Tris-HCl buffer solution and incubated for 10 minutes at 37°C to remove endogenic 5-HT. The cell membrane was collected by centrifugation, washed twice, and suspended in a 10-fold amount of 50 mM Tris-HCl buffer solution (pH 7.4). The suspension thus obtained was stored at -80°C until the start of the binding experiment.

vesamicol receptors [4] = target: T1, vesamicol receptors; assay: Saturation experiment of I-125 labeled DRC140 on brain cell fractions (Scatchard plots); type: binding; design: Synaptic vesicles were extracted and separated from the brain of a rat; from tissue; host or cells: rat brain without cerebellum: P2, crude synaptic vesicles, purified synaptic vesicles; conditions: for Bmax / Kd: average value ± standard deviation
[5] = Inhibitive concentration at 50% (IC50), Sigma α-1 receptor
[6] = inhibitive concentration at 50% (IC50), Receptor Sigma-1

Compound | IC50 (vesamicol receptors [1]) [nM] | IC50 (sigma receptors; [5]) [nM] | IC50 (sigma receptors; [6]) [nM] | IC50 (vesamicol receptors [2]) [nM] | other results
O[C@@H]1Cc2cccc(I)c2C[C@H]1N1CCN(c2ccccn2)CC1 (racemic) [DRE328, (±)-trans-5-iodo-2-hydroxy-3-[4-[2-pyridyl]-piperazinyl]tetralin] | 38.4 | – | – | – | –
Cc1ccccc1N1CCN([C@@H]2Cc3c(I)cccc3C[C@H]2O)CC1 (racemic) [DRE334, (±)-trans-5-iodo-2-hydroxy-3-[4-[2-methylphenyl]piperazinyl]tetralin] | 0.72 | 109 | 4480 | 0.74 | –
Cc1ccccc1N1CCN([C@@H]2Cc3cccc(I)c3C[C@H]2O)CC1 (racemic) [DRE335, (+)-trans-8-iodo-2-hydroxy-3-[4-[2-methylphenyl]piperazinyl]tetralin] | 2.8 | – | – | – | –
Cc1ccc(C)c(N2CCN([C@@H]3Cc4c(I)cccc4C[C@H]3O)CC2)c1 (racemic) [DRE348, (±)-trans-5-iodo-2-hydroxy-3-[4-[2,5-dimethylphenyl]piperazinyl]tetralin] | 0.78 | 1500 | 5570 | 1.16 | –
CCc1ccccc1N1CCN([C@@H]2Cc3c(I)cccc3C[C@H]2O)CC1 (racemic) [DRE353, (±)-trans-5-iodo-2-hydroxy-3-[4-[2-ethylphenyl]piperazinyl]tetralin] | 8.74 | 6900 | 5110 | 1.1 | –
Cc1cccc(N2CCN([C@@H]3Cc4c(I)cccc4C[C@H]3O)CC2)c1C (racemic) [DRE354, (±)-trans-5-iodo-2-hydroxy-3-[4-[2,3-dimethylphenyl]piperazinyl]tetralin] | 1.41 | 428 | 4560 | 1.67 | –
Cc1ccc(C)c(N2CCN([C@@H]3Cc4cc(I)ccc4C[C@H]3O)CC2)c1 (racemic) [DRE365, (±)-trans-6-iodo-2-hydroxy-3-[4-[2,5-dimethylphenyl]piperazinyl]tetralin] | 2.9 | – | – | – | –
Cc1ccc(C)c(N2CCN([C@@H]3Cc4ccc(I)cc4C[C@H]3O)CC2)c1 (racemic) [DRE366, (±)-trans-7-iodo-2-hydroxy-3-[4-[2,5-dimethylphenyl]-piperazinyl]tetralin] | 1.14 | 203 | 203 | 0.88 | –
COc1ccc(C)c(N2CCN([C@@H]3Cc4c(I)cccc4C[C@H]3O)CC2)c1 (racemic) [DRE378, (±)-trans-5-iodo-2-hydroxy-3-[4-[5-methoxy-2-methylphenyl]piperazinyl]tetralin] | 5.09 | – | – | – | –
Cc1cccc(N2CCN([C@@H]3Cc4c(I)cccc4C[C@H]3O)CC2)c1 (racemic) [DRF380, (±)-trans-5-iodo-2-hydroxy-3-[4-[3-methylphenyl]piperazinyl]tetralin] | 3.69 | – | 16300 | 2.47 | –
Cc1ccc(N2CCN([C@@H]3Cc4c(I)cccc4C[C@H]3O)CC2)cc1 (racemic) [DRF381, (±)-trans-5-iodo-2-hydroxy-3-[4-[4-methylphenyl]piperazinyl]tetralin] | 13.9 | – | 4780 | 14.7 | –
Cc1cccc(C)c1N1CCN([C@@H]2Cc3c(I)cccc3C[C@H]2O)CC1 (racemic) [DRF382, (±)-trans-5-iodo-2-hydroxy-3-[4-[2,6-dimethylphenyl]piperazinyl]tetralin] | 5.04 | 1300 | – | 6.94 | –
Cc1ccc(I)cc1N1CCN([C@@H]2Cc3c(N)cccc3C[C@H]2O)CC1 (racemic) [DRF383, (±)-trans-5-amino-2-hydroxy-3-[4-[5-iodo-2-methylphenyl]-piperazinyl]tetralin] | 8.74 | 6900 | – | 8.47 | –
O[C@@H]1Cc2cc(I)ccc2C[C@H]1N1CCN(c2ccccc2)CC1 (racemic) [DRG449, (±)-trans-7-iodo-2-hydroxy-3-[4-phenylpiperazinyl]tetralin] | – | – | 348 | 0.55 | IC50 [3]: 4770 nM
OC1Cc2cccc([125I])c2CC1N1CCN(c2ccccc2)CC1 (stereo not shown) [I-125 labeled DRC140] | – | – | – | – | Bmax (vesamicol receptors [4]; Crude synaptic vesicles): 821±78.6 fmol/mg protein; Kd (vesamicol receptors [4]; Crude synaptic vesicles): 0.34 ± 0.03 nM; Kd (vesamicol receptors [4]; P2 fraction): 0.41 ± 0.11 nM; Kd (vesamicol receptors [4]; Purified synaptic vesicles): 0.31 nM; Bmax (vesamicol receptors [4]; P2 fraction, 3 hours at 37°C): 187±58.3 fmol/mg protein; Bmax (vesamicol receptors [4]; Purified synaptic vesicles): 1751±92.6 fmol/mg protein; increase in the Bmax of purified synaptic vesicles relative to P2 fractions (vesamicol receptors [4]; purified by density gradient centrifugation versus P2 fractions): approximately nine
